Data published in publication PMC8807572, “The zebrafish embryo as an in vivo model for screening nanoparticle-formulated lipophilic anti-tuberculosis compounds” (Disease Models & Mechanisms, 2022).
Converted amounts (≈) assume the structure as drawn. “And” between values parts separate entries of the source, which are not always exact repeats. Identical values can stand only once. Like-named read-outs stand apart in the source and are kept apart here.

Tests used:
[1] = system: extracellular Mm; experiment: MIC90 resazurin microtiter assay against extracellular M. marinum; type: cell-based, Mycobacterium marinum
[2] = system: intracellular Mm in murine BMDMs; experiment: Anti-mycobacterial efficacy in M. marinum-infected BMDMs (CFU plating); type: cell-based, Mycobacterium marinum; conditions: for IC90: Mycobacterium marinum
[3] = system: Mtb; parameters: method as in data not published; conditions: in vitro, phenotypic HTS; ref data not published; cited from earlier work
[4] = system: VERO cells; parameters: method as in data not published; conditions: cytotoxicity in VERO cells; ref data not published; cited from earlier work

| Compound | MIC90 ([1]; Mycobacterium marinum, extracellular Mm, resazurin assay, read-out: MIC90) | IC99 [2] | IC90 ([2]; intracellular M. marinum in BMDM, calculated from the macrophage infection assay data, read-out: IC90) | MIC90 ([1]; Mycobacterium marinum) | MIC90 ([1]; extracellular Mm, resazurin assay) [µg/mL] | MIC90 ([1]; extracellular Mm, resazurin assay, read-out: MIC90) [µM] | IC90 ([2]; BMDM) | IC99 ([2]; intracellular M. marinum in BMDM, calculated from the macrophage infection assay data) | MIC90 against Mtb [3] [µg/mL] | CC50 [4] [µg/mL] |
| --- | --- | --- | --- | --- | --- | --- | --- | --- | --- | --- |
| CO[C@H]1/C=C/O[C@@]2(C)Oc3c(C)c(O)c4c(O)c(c(/C=N/N5CCN(C)CC5)c(O)c4c3C2=O)NC(=O)/C(C)=C\C=C\[C@H](C)[C@H](O)[C@@H](C)[C@@H](O)[C@@H](C)[C@H](OC(C)=O)[C@@H]1C [RIF, rifampicin] | 0.1 µg/mL and 0.12 µM | 1.97 µg/ml and 2.41 µM | 0.878 µg/mL and 1.07 µM | – | – | – | – | – | – | – |
| COc1ccc2c(ccc3oc([N+](=O)[O-])cc32)c1 [C16, 7-methoxy-2-nitronaphtho[2,1-b]furan] | – | – | – | 0.016 µg/mL and 0.07 µM | 0.016 | 0.07 | 0.013 µg/mL and 60 nM | 0.03 µg/ml and 0.11 µM | < 8 | 0.3 (≈ 1.23 µM) |
